# ChEMBL document CHEMBL5150067 (J Med Chem, 2022)
# Legend:
# [1] = Inhibition of Hedgehog-signalling dependent purmorphamine induced osteoblast differentiation in mouse C3H 10T1/2 cells assessed as residual activity by measuring ALP expression at 10 uM incubated for 96 hrs by CDP-Star luminogenic substrate based assay relative to control; type: functional
# [2] = Inhibition of Hedgehog-signalling dependent purmorphamine induced osteoblast differentiation in mouse C3H 10T1/2 cells assessed as reduction in ALP expression incubated for 96 hrs by CDP-Star luminogenic substrate based assay; type: functional, cell-based; conditions: C3H 10T1/2, 96 h
# [3] = biological target: T1, Aryl hydrocarbon receptor (Mus musculus, UniProt P30561); assay: Activation of AhR in purmorphamine-treated mouse C3H 10T1/2 cells assessed as translocation of AhR from cytoplasm to nucleus at 1 nM incubated for 24 hrs by immunostaining based analysis; type: cell-based; conditions: c3h 10t1/2, 24 h, 0.001 µM
# T1 sequence (P30561 whole entry): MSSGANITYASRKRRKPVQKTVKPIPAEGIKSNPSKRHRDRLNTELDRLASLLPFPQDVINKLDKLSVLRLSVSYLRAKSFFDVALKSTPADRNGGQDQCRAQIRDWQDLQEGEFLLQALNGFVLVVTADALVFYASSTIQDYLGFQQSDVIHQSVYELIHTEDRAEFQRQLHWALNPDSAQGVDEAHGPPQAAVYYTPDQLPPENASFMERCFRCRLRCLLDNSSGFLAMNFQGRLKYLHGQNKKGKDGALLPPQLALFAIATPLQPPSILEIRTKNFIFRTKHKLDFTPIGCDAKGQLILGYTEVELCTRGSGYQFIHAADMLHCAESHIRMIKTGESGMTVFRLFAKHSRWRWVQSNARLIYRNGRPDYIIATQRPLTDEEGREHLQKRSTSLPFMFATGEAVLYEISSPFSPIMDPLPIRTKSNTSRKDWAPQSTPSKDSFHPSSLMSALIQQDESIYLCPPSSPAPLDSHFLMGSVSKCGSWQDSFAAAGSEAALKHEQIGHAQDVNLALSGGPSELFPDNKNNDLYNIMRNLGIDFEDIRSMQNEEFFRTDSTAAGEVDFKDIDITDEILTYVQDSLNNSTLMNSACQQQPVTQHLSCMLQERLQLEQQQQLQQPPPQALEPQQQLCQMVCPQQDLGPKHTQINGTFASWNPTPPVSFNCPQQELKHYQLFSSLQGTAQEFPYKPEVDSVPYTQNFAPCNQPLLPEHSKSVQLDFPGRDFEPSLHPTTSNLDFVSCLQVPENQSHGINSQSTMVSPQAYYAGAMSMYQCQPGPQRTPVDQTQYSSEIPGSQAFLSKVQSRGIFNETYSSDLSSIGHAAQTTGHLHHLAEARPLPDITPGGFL
# [4] = biological target: T1, Aryl hydrocarbon receptor; assay: Activation of AhR in purmorphamine-treated mouse C3H 10T1/2 cells assessed as upregulation of Cyp1B1 mRNA levels measured after 96 hrs by RT-qPCR analysis; type: cell-based; conditions: c3h 10t1/2, 96 h, DDE = dose-dependent effect, dose 0.001-1 nM
Compound,Activity [1] [%],IC50 [2] [nM],further results
COc1cc2c(cc1Cl)C[C@H]1c3ccccc3CCN1C2=O,13.4,0.038,–
O=C1c2ccccc2C[C@H]2c3ccccc3CCN12,100,–,–
O=C1c2ccc(Cl)cc2C[C@@H]2c3ccccc3CCN12,27.4,850,–
O=C1c2ccc(Br)cc2C[C@H]2c3ccccc3CCN12,44.2,4.2,–
O=C1c2ccc(I)cc2C[C@H]2c3ccccc3CCN12,57.8,–,–
O=C1c2cc(Br)c(Cl)cc2C[C@H]2c3ccccc3CCN12,–,–,Activity [3]: Active; Activity [4]: Dde
O=C1c2ccccc2C[C@H]2c3ccc(Cl)cc3CCN12,87,–,–
COc1cc2c(cc1F)CCN1C(=O)c3ccccc3C[C@@H]21,127,–,–
COc1ccc2c(c1)C[C@H]1c3ccccc3CCN1C2=O,114,–,–
CC(C)c1ccc2c(c1)C[C@H]1c3ccccc3CCN1C2=O,90.1,–,–
O=C1c2ccccc2C[C@H]2c3ccccc3CCCN12,134,–,–
Cc1ccc2c(c1)C[C@H]1c3ccccc3CCN1C2=O,93.2,–,–
O=C1c2cccc(Cl)c2C[C@H]2c3ccccc3CCN12,53,–,–
O=C1c2ccc(F)cc2C[C@H]2c3ccccc3CCN12,61.2,–,–
O=C1c2cc(Br)c(Cl)c(Br)c2C[C@H]2c3ccccc3CCN12,27.9,0.36,–
O=C1c2ccc(Cl)cc2C[C@H]2c3ccccc3CCN12,30.4,1.2,–
O=C1c2cc(Cl)cc(Cl)c2C[C@H]2c3ccccc3CCN12,53.2,–,–
O=C1c2ccccc2C[C@H]2c3ccccc3CN12,29.2,–,–
COc1cc2c(cc1OC)C(=O)N1CCc3cc(OC)c(OC)cc3[C@@H]1C2,55.2,–,–
O=C1c2ccc(C(F)(F)F)cc2C[C@H]2c3ccccc3CCN12,33.1,0.7,–
O=C1c2ccc(Cl)c(Cl)c2C[C@H]2c3ccccc3CCN12,36,1.1,–
O=C1c2cc(I)c(Cl)cc2C[C@H]2c3ccccc3CCN12,30.7,0.004,–
O=C1c2ccc(Cl)c(F)c2C[C@H]2c3ccccc3CCN12,67.2,–,–
COc1cc2c(cc1OC)[C@@H]1Cc3ccccc3C(=O)N1CC2,96.5,–,–
